From patent US11780830B2, “Triazolone derivatives or salts thereof and pharmaceutical compositions comprising the same” (YUHAN CORPORATION, priority 2018, dated 2023)
Counter-ions that a name gives are not always drawn.

Tests used:
Type in all cases: biochemical
[1] = target: T1, recombinant human MAO-A (monoamine oxidase-A) (Homo sapiens, UniProt P21397); experiment: Activity on recombinant human MAO-A, method similar to the VAP-1 assay; conditions: substrate 0.5 mM tyramine; read-out: Inhibitory Activity (IC50, nM) MAO-A
T1 construct: purchased Sigma-Aldrich
T1 sequence (P21397 1-527): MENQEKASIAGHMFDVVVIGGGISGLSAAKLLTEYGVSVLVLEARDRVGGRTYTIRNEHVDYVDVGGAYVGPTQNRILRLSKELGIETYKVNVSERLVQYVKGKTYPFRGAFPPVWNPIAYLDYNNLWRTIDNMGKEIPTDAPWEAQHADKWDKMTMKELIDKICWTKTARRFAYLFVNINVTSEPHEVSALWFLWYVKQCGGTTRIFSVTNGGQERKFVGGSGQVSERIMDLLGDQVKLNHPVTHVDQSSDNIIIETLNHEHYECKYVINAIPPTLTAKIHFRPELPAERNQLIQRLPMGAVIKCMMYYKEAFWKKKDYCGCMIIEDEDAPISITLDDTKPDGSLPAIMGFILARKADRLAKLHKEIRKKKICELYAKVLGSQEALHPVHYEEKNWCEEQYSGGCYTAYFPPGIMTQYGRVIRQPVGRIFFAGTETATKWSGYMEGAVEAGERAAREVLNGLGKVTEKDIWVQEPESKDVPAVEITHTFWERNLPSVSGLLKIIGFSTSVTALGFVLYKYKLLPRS
In short: (§1)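 Enzyme preincubated with compound 30 min at 37 °C in 50 mM sodium phosphate pH 7.4, final DMSO below 1%. Substrate was 0.5 mM tyramine for MAO-A and 1 mM benzylamine for MAO-B, with 200 uM Amplex Red and 1 U/mL HRP. H2O2-coupled resorufin fluorescence (ex 544/em 590) followed over 1–2 h; 8-point 4-parameter IC50.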

[2] = target: T2, recombinant human DAO (diamine oxidase) (Homo sapiens, UniProt P19801); experiment: Activity on recombinant human DAO, method similar to the VAP-1 assay; conditions: substrate 1 mM putrescine; read-out: Inhibitory Activity (IC50, nM) DAO
T2 construct: purchased R&D systems
T2 sequence (P19801 20-751): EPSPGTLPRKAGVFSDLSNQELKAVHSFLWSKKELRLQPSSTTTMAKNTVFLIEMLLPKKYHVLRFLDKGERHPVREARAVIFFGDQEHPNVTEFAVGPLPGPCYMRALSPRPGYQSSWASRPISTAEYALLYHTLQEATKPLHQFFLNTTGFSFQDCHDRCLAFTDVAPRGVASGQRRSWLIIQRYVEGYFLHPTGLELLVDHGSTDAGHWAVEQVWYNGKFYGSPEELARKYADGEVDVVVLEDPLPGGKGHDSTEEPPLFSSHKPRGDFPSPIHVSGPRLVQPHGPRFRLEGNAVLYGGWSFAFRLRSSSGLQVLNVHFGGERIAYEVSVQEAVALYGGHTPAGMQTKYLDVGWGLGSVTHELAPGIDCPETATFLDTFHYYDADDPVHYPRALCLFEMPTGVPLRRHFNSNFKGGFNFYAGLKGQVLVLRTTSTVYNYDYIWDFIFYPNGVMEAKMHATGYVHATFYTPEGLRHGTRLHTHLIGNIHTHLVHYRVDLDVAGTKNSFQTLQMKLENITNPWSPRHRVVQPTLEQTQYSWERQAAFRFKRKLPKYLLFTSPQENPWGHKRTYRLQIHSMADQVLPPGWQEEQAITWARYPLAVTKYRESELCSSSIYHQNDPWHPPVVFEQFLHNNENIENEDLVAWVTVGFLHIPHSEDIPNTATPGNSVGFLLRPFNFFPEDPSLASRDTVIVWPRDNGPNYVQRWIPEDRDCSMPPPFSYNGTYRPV
In short: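 Inhibition of recombinant human diamine oxidase (DAO, R&D systems) was assessed by the same approach as the VAP-1 assay, using 1 mM putrescine as substrate. Hydrogen peroxide formed was detected through an HRP-coupled Amplex Red reaction yielding fluorescent resorufin, read at 544 nm excitation and 590 nm emission. IC50 values came from four-parameter logistic fitting in GraphPad Prism.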

[3] = target: T3, recombinant human MAO-B (monoamine oxidase-B) (Homo sapiens, UniProt P27338); experiment: Activity on recombinant human MAO-B, method similar to the VAP-1 assay; conditions: substrate 1 mM benzylamine; read-out: Inhibitory Activity (IC50, nM) MAO-B
T3 construct: purchased Sigma-Aldrich
T3 sequence (P27338 1-520): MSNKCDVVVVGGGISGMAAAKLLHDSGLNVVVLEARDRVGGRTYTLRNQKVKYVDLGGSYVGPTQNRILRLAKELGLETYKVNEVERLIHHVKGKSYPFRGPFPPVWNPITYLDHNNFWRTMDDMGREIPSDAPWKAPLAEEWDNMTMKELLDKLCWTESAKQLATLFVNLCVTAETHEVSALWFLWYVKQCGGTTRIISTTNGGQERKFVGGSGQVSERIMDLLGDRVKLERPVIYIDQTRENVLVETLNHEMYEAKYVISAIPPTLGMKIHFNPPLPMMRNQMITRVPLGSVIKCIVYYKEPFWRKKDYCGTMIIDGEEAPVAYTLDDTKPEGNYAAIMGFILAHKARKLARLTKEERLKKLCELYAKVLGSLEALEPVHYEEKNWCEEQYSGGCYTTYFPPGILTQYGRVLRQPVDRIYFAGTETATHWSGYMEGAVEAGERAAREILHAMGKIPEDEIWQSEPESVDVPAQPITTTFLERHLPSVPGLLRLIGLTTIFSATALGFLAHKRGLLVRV
In short: as §1

recombinant human VAP-1 = target: T4, recombinant human VAP-1 (Homo sapiens, UniProt Q16853); experiment: Activity on recombinant human VAP-1, HRP-coupled Amplex Red hydrogen peroxide assay; conditions: substrate 1 mM benzylamine; compound incubated with enzyme at 37° C. for 30 minutes; pH 7.4; read-out: Inhibitory Activity (IC50, nM) human VAP-1
T4 construct: purchased R&D systems
T4 sequence (Q16853 1-763): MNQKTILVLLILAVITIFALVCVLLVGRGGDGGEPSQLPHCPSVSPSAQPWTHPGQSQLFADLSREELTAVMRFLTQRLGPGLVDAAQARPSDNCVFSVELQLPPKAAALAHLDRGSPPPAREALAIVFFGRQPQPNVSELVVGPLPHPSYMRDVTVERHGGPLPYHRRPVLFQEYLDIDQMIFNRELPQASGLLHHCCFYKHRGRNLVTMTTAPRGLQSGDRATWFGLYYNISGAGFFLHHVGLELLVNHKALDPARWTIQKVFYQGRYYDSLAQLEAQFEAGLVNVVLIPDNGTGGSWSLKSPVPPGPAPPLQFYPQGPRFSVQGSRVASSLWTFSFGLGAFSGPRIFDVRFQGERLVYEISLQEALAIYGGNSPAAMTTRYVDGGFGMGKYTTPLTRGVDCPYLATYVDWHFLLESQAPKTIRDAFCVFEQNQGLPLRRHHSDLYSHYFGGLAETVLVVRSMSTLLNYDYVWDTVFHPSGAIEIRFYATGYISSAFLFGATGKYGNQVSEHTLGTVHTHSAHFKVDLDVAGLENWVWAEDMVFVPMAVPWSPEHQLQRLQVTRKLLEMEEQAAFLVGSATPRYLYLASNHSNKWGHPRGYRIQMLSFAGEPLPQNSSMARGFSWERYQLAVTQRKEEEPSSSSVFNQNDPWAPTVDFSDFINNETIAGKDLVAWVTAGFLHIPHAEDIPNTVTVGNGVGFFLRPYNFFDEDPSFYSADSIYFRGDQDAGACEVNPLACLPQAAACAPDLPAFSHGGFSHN
In short: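 Enzyme in 50 mM sodium phosphate pH 7.4 preincubated with compound 30 min at 37 °C, then 1 mM benzylamine, 200 µM Amplex Red and 1 U/mL HRP added. H2O2-derived resorufin fluorescence (ex 544/em 590 nm) followed over 1–2 h; signal-rate decrease versus DMSO control, 8-point curve, four-parameter logistic IC50.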

SMILES	IC50 [1] [nM]	IC50 [2] [nM]	IC50 [3] [nM]	IC50 (recombinant human VAP-1) [nM]
CN(C)c1ccc(/C=C/c2ccc(Cn3cnn(C/C(=C/F)CN)c3=O)s2)cc1 [Example 120, 2-[(E)-2-(aminomethyl)-3-fluoro-allyl]-4-[[5-[2-[4-(dimethylamino)phenyl]vinyl]-2-thienyl]methyl]-1,2,4-triazol-3-one]	16000	1100	340	6.2
NC/C(=C\F)Cn1ncn(Cc2ccc(/C=C/c3ccsc3)s2)c1=O [Example 121, 2-[(E)-2-(aminomethyl)-3-fluoro-allyl]-4-[[5-[(E)-2-(3-thienyl)vinyl]-2-thienyl]methyl]-1,2,4-triazol-3-one hydrochloride]	> 100000	1800	290	1.2
Cn1cnc2cc(/C=C/c3ccc(Cn4cnn(C/C(=C/F)CN)c4=O)s3)cnc21 [Example 123, 2-[(E)-2-(aminomethyl)-3-fluoro-allyl]-4-[[5-[(E)-2-(3-methylimidazo[4,5-b]pyridin-6-yl)vinyl]-2-thienyl]methyl]-1,2,4-triazol-3-one hydrochloride]	> 100000	250	> 10000	0.6
NC/C(=C\F)Cn1ncn(Cc2ccc(/C=C/c3cnc4c(c3)NC(=O)CO4)s2)c1=O [Example 124, 7-[(E)-2-[5-[[1-[(E)-2-(aminomethyl)-3-fluoro-allyl]-5-oxo-1,2,4-triazol-4-yl]methyl]-2-thienyl]vinyl]-1H-pyrido[2,3-b][1,4]oxazin-2-one hydrochloride]	> 100000	270	5100	0.1
NC/C(=C\F)Cn1ncn(Cc2ccc(C#Cc3cccc(N)c3)s2)c1=O [Example 125, 2-[(2E)-2-(aminomethyl)-3-fluoroprop-2-en-1-yl]-4-(5-[(3-aminophenyl)ethynyl]thiophen-2-ylmethyl)-2,4-dihydro-3H-1,2,4-triazol-3-one hydrochloride]	> 100000	1600	2100	3.5
COc1ccc(C#Cc2ccc(Cn3cnn(C/C(=C/F)CN)c3=O)s2)cc1 [Example 126, 2-[(2E)-2-(aminomethyl)-3-fluoroprop-2-en-1-yl]-4-(5-[(4-methoxyphenyl)ethynyl]thiophen-2-ylmethyl)-2,4-dihydro-3H-1,2,4-triazol-3-one hydrochloride]	57000	1000	250	3.4
NC/C(=C\F)Cn1ncn(Cc2ccc(C#Cc3cccnc3)s2)c1=O [Example 127, 2-[(2E)-2-(aminomethyl)-3-fluoroprop-2-en-1-yl]-4-[5-(pyridin-3-ylethynyl)thiophen-2-yl]methyl-2,4-dihydro-3H-1,2,4-triazol-3-one hydrochloride]	> 100000	910	150	0.8
CN(C)c1ccc(C#Cc2ccc(Cn3cnn(C/C(=C/F)CN)c3=O)s2)cn1 [Example 128, 2-[(E)-2-(aminomethyl)-3-fluoro-allyl]-4-[[5-[2-[6-(dimethylamino)-3-pyridyl]ethynyl]-2-thienyl]methyl]-1,2,4-triazol-3-one]	30000	9800	490	0.7
NC/C(=C\F)Cn1ncn(Cc2ccc(C#Cc3ccc(N4CCOCC4)nc3)s2)c1=O [Example 129, 2-[(E)-2-(aminomethyl)-3-fluoro-allyl]-4-[[5-[2-(6-morpholino-3-pyridyl)ethynyl]-2-thienyl]methyl]-1,2,4-triazol-3-one hydrochloride]	> 100000	360	770	0.6
Cn1cncc1C#Cc1ccc(Cn2cnn(C/C(=C/F)CN)c2=O)s1 [Example 130, 2-[(2E)-2-(aminomethyl)-3-fluoroprop-2-en-1-yl]-4-(5-[(1-methyl-1H-imidazol-5-yl)ethynyl]thiophen-2-ylmethyl)-2,4-dihydro-3H-1,2,4-triazol-3-one hydrochloride]	57400	1500	440	0.5
Cn1cc(C#Cc2ccc(Cn3cnn(C/C(=C/F)CN)c3=O)s2)cn1 [Example 131, 2-[(2E)-2-(aminomethyl)-3-fluoroprop-2-en-1-yl]-4-(5-[(1-methyl-1H-pyrazol-4-yl)ethynyl]thiophen-2-ylmethyl)-2,4-dihydro-3H-1,2,4-triazol-3-one hydrochloride]	> 100000	1300	240	2.3
NC/C(=C\F)Cn1ncn(Cc2ccc(C#CCN3CCS(=O)(=O)CC3)s2)c1=O [Example 132, 2-[(2E)-2-(aminomethyl)-3-fluoroprop-2-en-1-yl]-4-(5-[3-(1,1-dioxidothiomorpholin-4-yl)prop-1-yn-1-yl]thiophen-2-ylmethyl)-2,4-dihydro-3H-1,2,4-triazol-3-one hydrochloride]	> 100000	1400	2500	3.1
